ChEMBL document CHEMBL2074419, “Induction of multidrug resistance protein 3 in rat liver is associated with altered vectorial excretion of acetaminophen metabolites” (Drug Metab Dispos, 2003)

Key:
Format in all cases: functional, organism-based, Sprague-Dawley
[1] = target: T1, ATP-binding cassette sub-family C member 2 (Rattus norvegicus, UniProt Q63120); assay: (§1) TP_TRANSPORTER: Western in vivo, liver of SD rat
[2] = target: T2, ATP-binding cassette sub-family C member 3 (Rattus norvegicus, UniProt O88563); assay: as §1
T2 sequence (O88563 whole entry): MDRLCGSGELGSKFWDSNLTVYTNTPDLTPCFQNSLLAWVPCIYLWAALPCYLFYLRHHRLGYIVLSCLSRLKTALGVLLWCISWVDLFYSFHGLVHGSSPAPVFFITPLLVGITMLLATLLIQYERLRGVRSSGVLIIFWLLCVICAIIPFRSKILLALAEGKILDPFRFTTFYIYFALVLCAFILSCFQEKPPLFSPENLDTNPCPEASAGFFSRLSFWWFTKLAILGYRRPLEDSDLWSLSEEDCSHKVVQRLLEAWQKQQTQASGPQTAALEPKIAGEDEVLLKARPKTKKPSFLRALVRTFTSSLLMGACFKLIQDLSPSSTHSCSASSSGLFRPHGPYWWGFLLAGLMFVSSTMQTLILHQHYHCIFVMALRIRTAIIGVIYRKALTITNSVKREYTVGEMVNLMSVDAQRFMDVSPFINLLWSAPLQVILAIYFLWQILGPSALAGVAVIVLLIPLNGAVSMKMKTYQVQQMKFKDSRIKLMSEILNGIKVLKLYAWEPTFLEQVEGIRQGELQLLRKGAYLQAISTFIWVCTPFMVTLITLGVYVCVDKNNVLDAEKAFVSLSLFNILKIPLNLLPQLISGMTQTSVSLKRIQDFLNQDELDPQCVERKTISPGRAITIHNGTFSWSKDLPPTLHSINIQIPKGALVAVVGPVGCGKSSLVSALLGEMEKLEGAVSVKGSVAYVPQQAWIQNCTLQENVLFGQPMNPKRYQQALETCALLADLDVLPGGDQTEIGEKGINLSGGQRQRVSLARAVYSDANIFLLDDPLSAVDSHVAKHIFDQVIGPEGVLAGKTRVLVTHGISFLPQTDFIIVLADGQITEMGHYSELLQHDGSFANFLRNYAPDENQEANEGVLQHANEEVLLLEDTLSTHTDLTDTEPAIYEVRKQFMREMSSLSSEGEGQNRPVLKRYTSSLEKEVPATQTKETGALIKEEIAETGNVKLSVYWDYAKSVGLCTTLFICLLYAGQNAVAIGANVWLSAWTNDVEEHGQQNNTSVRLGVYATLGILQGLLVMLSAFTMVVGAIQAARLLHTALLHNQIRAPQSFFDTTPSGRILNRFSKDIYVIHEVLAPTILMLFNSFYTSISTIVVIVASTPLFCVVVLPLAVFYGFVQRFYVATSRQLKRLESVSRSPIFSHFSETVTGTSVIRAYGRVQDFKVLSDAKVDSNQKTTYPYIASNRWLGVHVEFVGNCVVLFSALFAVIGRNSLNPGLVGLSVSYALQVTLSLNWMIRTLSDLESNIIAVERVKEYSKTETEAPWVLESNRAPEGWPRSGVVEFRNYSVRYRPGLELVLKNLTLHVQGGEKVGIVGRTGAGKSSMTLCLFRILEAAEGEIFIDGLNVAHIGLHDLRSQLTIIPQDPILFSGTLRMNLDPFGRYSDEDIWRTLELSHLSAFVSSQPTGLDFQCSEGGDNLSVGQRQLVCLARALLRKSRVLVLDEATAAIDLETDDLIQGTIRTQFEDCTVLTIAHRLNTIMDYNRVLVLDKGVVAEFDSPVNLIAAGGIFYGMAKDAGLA

[3] = target: T1, ATP-binding cassette sub-family C member 2; assay: (§2) TP_TRANSPORTER: quantitative PCR in vivo, liver of SD rat
[4] = target: T3, ATP-binding cassette subfamily C member 4 (Rattus norvegicus, UniProt F1M3J4); assay: as §2
T3 sequence (F1M3J4 whole entry): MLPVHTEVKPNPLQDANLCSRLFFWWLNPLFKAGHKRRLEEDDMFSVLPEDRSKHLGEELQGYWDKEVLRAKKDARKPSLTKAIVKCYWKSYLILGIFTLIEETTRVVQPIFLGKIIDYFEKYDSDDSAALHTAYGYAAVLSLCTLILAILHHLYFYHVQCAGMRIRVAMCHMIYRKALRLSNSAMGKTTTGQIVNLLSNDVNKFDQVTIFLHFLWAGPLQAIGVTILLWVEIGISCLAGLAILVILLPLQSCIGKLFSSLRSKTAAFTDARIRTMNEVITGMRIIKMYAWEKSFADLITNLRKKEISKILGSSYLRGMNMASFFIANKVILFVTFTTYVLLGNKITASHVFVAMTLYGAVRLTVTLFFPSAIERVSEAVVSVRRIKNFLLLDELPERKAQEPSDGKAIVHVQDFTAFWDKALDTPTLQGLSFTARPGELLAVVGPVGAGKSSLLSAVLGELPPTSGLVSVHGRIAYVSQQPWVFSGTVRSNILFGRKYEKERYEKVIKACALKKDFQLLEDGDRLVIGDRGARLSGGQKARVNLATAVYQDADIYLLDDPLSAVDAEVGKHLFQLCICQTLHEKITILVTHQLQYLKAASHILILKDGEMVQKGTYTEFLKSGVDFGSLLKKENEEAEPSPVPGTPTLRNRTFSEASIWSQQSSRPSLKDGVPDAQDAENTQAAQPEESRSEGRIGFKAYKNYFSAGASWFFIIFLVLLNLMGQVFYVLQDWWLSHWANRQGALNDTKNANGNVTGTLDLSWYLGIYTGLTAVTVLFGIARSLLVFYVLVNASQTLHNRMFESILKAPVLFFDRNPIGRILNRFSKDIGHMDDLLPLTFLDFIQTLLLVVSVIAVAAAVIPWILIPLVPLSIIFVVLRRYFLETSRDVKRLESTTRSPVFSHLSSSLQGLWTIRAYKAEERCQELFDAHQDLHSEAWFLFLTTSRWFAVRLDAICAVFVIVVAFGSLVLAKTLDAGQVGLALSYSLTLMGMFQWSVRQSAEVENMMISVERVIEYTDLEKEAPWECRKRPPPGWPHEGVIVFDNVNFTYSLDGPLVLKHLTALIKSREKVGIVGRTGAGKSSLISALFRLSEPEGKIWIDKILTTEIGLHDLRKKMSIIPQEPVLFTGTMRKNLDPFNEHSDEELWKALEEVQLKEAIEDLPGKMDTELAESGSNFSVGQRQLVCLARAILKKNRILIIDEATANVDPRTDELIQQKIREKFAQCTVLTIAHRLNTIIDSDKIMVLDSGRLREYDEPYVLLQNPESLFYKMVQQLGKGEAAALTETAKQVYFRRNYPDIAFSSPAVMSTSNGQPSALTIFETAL

[5] = target: T2, ATP-binding cassette sub-family C member 3; assay: as §2
[6] = target: T2, ATP-binding cassette sub-family C member 3; assay: (§3) TP_TRANSPORTER: quantitative PCR in vivo, kidney of SD rat
[7] = target: T1, ATP-binding cassette sub-family C member 2; assay: as §3
[8] = target: T3, ATP-binding cassette subfamily C member 4; assay: as §3

Measured: Activity

T1 sequence (Q63120 whole entry): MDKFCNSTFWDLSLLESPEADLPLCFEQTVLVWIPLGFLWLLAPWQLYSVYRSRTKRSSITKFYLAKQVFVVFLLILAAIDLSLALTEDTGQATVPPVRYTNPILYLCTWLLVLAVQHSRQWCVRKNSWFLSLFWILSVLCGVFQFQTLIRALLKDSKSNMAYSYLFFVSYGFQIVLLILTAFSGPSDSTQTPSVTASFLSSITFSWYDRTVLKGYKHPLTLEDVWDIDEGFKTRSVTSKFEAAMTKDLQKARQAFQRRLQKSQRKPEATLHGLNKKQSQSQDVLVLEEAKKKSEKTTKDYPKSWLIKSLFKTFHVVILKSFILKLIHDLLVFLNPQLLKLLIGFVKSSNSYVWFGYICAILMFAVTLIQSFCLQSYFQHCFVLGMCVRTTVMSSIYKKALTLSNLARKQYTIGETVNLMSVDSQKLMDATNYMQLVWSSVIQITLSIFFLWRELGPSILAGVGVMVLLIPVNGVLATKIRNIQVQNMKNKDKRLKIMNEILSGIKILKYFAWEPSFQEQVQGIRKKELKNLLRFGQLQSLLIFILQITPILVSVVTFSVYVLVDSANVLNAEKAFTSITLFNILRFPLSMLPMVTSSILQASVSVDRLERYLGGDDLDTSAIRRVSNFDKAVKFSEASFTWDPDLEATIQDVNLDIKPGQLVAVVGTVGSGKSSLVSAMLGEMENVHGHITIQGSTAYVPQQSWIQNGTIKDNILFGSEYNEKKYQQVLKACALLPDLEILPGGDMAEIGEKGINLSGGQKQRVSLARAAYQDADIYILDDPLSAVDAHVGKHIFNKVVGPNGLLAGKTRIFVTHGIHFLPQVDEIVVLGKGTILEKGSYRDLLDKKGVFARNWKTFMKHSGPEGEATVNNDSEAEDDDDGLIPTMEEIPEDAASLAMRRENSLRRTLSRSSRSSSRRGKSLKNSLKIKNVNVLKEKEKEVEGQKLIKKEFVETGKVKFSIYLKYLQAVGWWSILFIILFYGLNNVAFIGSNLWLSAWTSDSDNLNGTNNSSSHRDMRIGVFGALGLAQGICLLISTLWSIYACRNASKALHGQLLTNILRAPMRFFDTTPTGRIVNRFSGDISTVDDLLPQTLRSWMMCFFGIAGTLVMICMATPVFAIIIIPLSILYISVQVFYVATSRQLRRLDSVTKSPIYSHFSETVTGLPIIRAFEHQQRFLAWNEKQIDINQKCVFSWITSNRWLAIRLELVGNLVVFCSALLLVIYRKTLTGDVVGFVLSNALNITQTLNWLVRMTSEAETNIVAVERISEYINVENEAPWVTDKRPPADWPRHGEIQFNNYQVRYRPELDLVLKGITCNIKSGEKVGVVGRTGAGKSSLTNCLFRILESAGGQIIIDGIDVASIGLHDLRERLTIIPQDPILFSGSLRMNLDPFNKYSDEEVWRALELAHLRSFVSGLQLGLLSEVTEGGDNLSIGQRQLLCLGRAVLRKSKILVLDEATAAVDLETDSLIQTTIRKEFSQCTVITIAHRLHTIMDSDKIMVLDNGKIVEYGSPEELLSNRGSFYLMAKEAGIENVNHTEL

c1ccc([C@H]2O[C@@H]2c2ccccc2)cc1 (relative stereo)
inducer []: [1] | [2] | [3] | [4] | [5]

CCC1(c2ccccc2)C(=O)NC(=O)NC1=O [PHENOBARBITAL]
inducer []: [2] | [5]

Cc1c(-c2cnccn2)ssc1=S [OLTIPRAZ]
inducer []: [1] | [2] | [3] | [5] | [6]

C=CCSCC=C [DIALLYL SULFIDE]
not listed: [3]
inducer []: all other assays above
